Results published in patent US12599672B2, “KRAS proteolysis targeting chimeras” (PAQ Therapeutics Inc., priority 2023, dated 2026).

How the values were obtained:
Format in all cases: cell-based
[1] = biological target: T1, KRAS G12D (Homo sapiens, UniProt P01116, G12D); experiment: KRAS G12D HiBit assay; details: AsPc-1-KRAS (G12D)-HiBit-KI cell, compound treatment for 24 hours; for DC50: absolute DC50
T1 construct: AsPc-1-KRAS (G12D)-HiBit-KI cell (Pharmaron); host or cells: AsPc-1-KRAS (G12D)-HiBit-KI cells (HiBiT knock-in at the endogenous KRAS locus)
T1 sequence (P01116 1-188 isoform P01116-2 G12D): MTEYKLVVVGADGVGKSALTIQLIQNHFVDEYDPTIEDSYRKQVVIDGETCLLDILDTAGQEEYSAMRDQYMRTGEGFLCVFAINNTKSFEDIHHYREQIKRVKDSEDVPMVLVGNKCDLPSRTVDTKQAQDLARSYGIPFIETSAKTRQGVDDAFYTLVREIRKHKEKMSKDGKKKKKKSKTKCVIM
Outline: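 HiBiT luminescence, detected by adding lytic buffer, substrate and LgBiT protein, served as the KRAS G12D read-out. Compounds, serially diluted 3-fold over 10 points from 0.3 mM DMSO stock, were on cells for 24 h; percent inhibition normalized to cells given 0.1% DMSO only.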

[2] = biological target: T2, KRAS G12V (Homo sapiens, UniProt P01116, G12V); experiment: KRAS G12V HiBit assay; details: SW620-KRAS (G12V)-HiBit-KI cells, compound treatment for 24 hours
T2 construct: SW620-KRAS (G12V)-HiBit-KI cell (Pharmaron); host or cells: SW620-KRAS (G12V)-HiBit-KI cells (HiBiT knock-in at the endogenous KRAS locus)
T2 sequence (P01116 1-188 isoform P01116-2 G12V): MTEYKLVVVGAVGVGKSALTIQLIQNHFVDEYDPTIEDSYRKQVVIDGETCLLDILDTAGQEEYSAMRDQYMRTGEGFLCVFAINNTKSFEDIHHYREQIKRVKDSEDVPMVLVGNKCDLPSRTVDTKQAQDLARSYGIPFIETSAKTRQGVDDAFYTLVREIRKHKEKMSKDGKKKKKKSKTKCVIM
Outline: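 Luminescence from lytic Nano-Glo HiBiT detection with LgBiT read KRAS G12V levels after 24 h compound exposure. Dilutions were 10-point, 3-fold, from a 0.3 mM DMSO stock. Degradation activity was normalised to cells given 0.1% DMSO alone.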

[3] = biological target: T3, KRAS (Homo sapiens, UniProt P01116); experiment: KRASamp MSD assay; details: KE39 (KRAS amplified) cells, treated with test compounds for 24 hr, MSD readout of KRAS degradation
T3 construct: endogenous in cells; host or cells: KE39 (KRAS amplified) cells
T3 sequence (P01116 1-188 isoform P01116-2): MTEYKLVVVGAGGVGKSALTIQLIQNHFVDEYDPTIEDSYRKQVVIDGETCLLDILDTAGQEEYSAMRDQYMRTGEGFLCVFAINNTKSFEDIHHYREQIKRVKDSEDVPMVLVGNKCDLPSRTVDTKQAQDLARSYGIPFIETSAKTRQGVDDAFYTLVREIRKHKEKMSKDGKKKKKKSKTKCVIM
Outline: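 Degradation DC50 derived by curve fitting, with KRAS levels quantified by MSD electrochemiluminescence (capture/detection antibodies, recombinant WT KRAS standard). Lysates prepared from KE39 cells (KRAS amplified) exposed to test compounds for 24 hr.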

DC50 ([1]; class symbols) | DC50 ([2]; class symbols) | DC50 [3] | DC50 ([2]; numeric bounds) | Dmax ([1]; class symbols) | DC50 ([1]; numeric bounds given in place of class symbols) | SMILES
< 100 nM | < 10 nM | < 1 nM | – | – | – | CCc1c(F)ccc2cc(O)cc(-c3ncc4c(N5CCC[C@@](C)(O)C5)nc(OC[C@@]56CCCN5[C@H](COC(=O)N5CCC7(CCC(N8CCC(c9ccc%10c(c9)n(C)c(=O)n%10C9CCC(=O)NC9=O)CC8)C7)CC5)CC6)nc4c3F)c12 (stereo partly drawn) [Compound 455, ((3S,7aS)-7a-(((7-(8-ethyl-7-fluoro-3-hydroxynaphthalen-1-yl)-8-fluoro-4-((R)-3-hydroxy-3-methylpiperidin-1-yl)pyrido[4,3-d]pyrimidin-2-yl)oxy)methyl)hexahydro-1H-pyrrolizin-3-yl)methyl 2-(4-(1-(2,6-dioxopiperidin-3-yl)-3-methyl-2-oxo-2,3-dihydro-1H-benzo[d]imidazol-5-yl)piperidin-1-yl)-8-azaspiro[4.5]decane-8-carboxylate]
< 100 nM | 10 to 100 nM | 1 to 10 nM | – | – | – | C#Cc1cc(F)cc2cc(O)cc(-c3ncc4c(N5CCC[C@@](C)(O)C5)nc(OC[C@@]56CCCN5[C@H](COC(=O)N5CCC(CN7CCC(c8ccc9c(c8)n(C)c(=O)n9C8CCC(=O)NC8=O)CC7)CC5)CC6)nc4c3F)c12 (stereo partly drawn) [Compound 405, ((3S,7aS)-7a-(((7-(8-Ethynyl-6-fluoro-3-hydroxynaphthalen-1-yl)-8-fluoro-4-((R)-3-hydroxy-3-methylpiperidin-1-yl)pyrido[4,3-d]pyrimidin-2-yl)oxy)methyl)hexahydro-1H-pyrrolizin-3-yl)methyl 4-((4-(1-(2,6-dioxopiperidin-3-yl)-3-methyl-2-oxo-2,3-dihydro-1H-benzo[d]imidazole-5-yl)piperidin-1-yl)methyl) piperidine-1-carboxylate]
< 100 nM | > 100 nM | ≥ 10 nM | – | – | – | C#Cc1c(F)ccc2cccc(-c3ncc4c(N5CCC[C@@](C)(O)C5)nc(OCC5(CN6CCN(CC7CCN(c8ccc9c(c8)C(=O)N(C8CCC(=O)NC8=O)C9=O)CC7)CC6)CC5)nc4c3F)c12 (stereo partly shown) [Compound 55]
< 100 nM | – | 1 to 10 nM | > 70.5 nM | – | – | CCc1c(F)ccc2cc(O)cc(-c3ncc4c(N5CCC[C@@](C)(O)C5)nc(OC[C@@]56CCCN5[C@@H](COC(=O)N5CCC(CN7CCC(c8ccc9c(c8)n(C)c(=O)n9C8CCC(=O)NC8=O)CC7)CC5)CC6)nc4c3F)c12 (stereo partly drawn) [Compound 389, ((3R,7aS)-7a-(((7-(8-ethyl-7-fluoro-3-hydroxynaphthalen-1-yl)-8-fluoro-4-((R)-3-hydroxy-3-methylpiperidin-1-yl)pyrido[4,3-d]pyrimidin-2-yl)oxy)methyl)hexahydro-1H-pyrrolizin-3-yl)methyl 4-((4-(1-(2,6-dioxopiperidin-3-yl)-3-methyl-2-oxo-2,3-dihydro-1H-benzo[d]imidazol-5-yl)piperidin-1-yl)methyl)piperidine-1-carboxylate]
< 100 nM | < 10 nM | < 1 nM | – | > 50% | – | C#Cc1c(F)ccc2cc(O)cc(-c3ncc4c(N5CCCCC5)nc(OC[C@@]56CCCN5[C@H](COC(=O)N5CCC(CN7CCC(c8ccc9c(c8)n(C)c(=O)n9C8CCC(=O)NC8=O)CC7)CC5)CC6)nc4c3F)c12 (stereo partly drawn) [Compound 122, ((3S,7aS)-7a-(((7-(8-Ethynyl-7-fluoro-3-hydroxynaphthalen-1-yl)-8-fluoro-4-(piperidin-1-yl)pyrido[4,3-d]pyrimidin-2-yl)oxy)methyl)hexahydro-1H-pyrrolizin-3-yl)methyl4-((4-(1-(2,6-dioxopiperidin-3-yl)-3-methyl-2-oxo-2,3-dihydro-1H-benzo[d]imidazol-5-yl)piperidin-1-yl)methyl) piperidine-1-carboxylate]
– | > 100 nM | ≥ 10 nM | – | – | > 100 nM | CCc1c(F)ccc2cc(O)cc(-c3ncc4c(N5CCC[C@@](C)(N)C5)nc(OC[C@@]56CCCN5[C@H](COC(=O)N5CCC7(CC5)CC(N5CCC(c8ccc9c(c8)n(C)c(=O)n9C8CCC(=O)NC8=O)CC5)C7)CC6)nc4c3F)c12 (stereo partly drawn) [Compound 479, ((3S,7aS)-7a-(((4-((R)-3-amino-3-methylpiperidin-1-yl)-7-(8-ethyl-7-fluoro-3-hydroxynaphthalen-1-yl)-8-fluoropyrido[4,3-d]pyrimidin-2-yl)oxy)methyl)hexahydro-1H-pyrrolizin-3-yl)methyl 2-(4-(1-(2,6-dioxopiperidin-3-yl)-3-methyl-2-oxo-2,3-dihydro-1H-benzo[d]imidazol-5-yl)piperidin-1-yl)-7-azaspiro[3.5]nonane-7-carboxylate]
< 100 nM | > 100 nM | ≥ 10 nM | – | – | – | C#Cc1c(F)ccc2cc(O)cc(-c3ncc4c(N5CCC[C@@](C)(O)C5)nc(OC[C@@]56CCCN5[C@H](COC(=O)N5CCC7(CCC7CN7CCC(c8ccc9c(c8)n(C)c(=O)n9C8CCC(=O)NC8=O)CC7)CC5)CC6)nc4c3F)c12 (stereo partly drawn) [Compound 327, ((3S,7aS)-7a-(((7-(8-ethynyl-7-fluoro-3-hydroxynaphthalen-1-yl)-8-fluoro-4-((R)-3-hydroxy-3-methylpiperidin-1-yl)pyrido[4,3-d]pyrimidin-2-yl)oxy)methyl)hexahydro-1H-pyrrolizin-3-yl)methyl 1-((4-(1-(2,6-dioxopiperidin-3-yl)-3-methyl-2-oxo-2,3-dihydro-1H-benzo[d]imidazol-5-yl)piperidin-1-yl)methyl)-7-azaspiro[3.5]nonane-7-carboxylate]
< 100 nM | 10 to 100 nM | ≥ 10 nM | – | – | – | CCc1c(F)ccc2cc(O)cc(-c3ncc4c(N5CCC[C@@](C)(O)C5)nc(OC[C@@]56CCCN5[C@H](COC(=O)NC5CCN(C7CCN(c8ccc9c(c8)n(C)c(=O)n9C8CCC(=O)NC8=O)CC7)CC5)CC6)nc4c3F)c12 (stereo partly drawn) [Compound 427, ((3S,7aS)-7a-(((7-(8-ethyl-7-fluoro-3-hydroxynaphthalen-1-yl)-8-fluoro-4-((R)-3-hydroxy-3-methylpiperidin-1-yl)pyrido[4,3-d]pyrimidin-2-yl)oxy)methyl)hexahydro-1H-pyrrolizin-3-yl)methyl (1′-(1-(2,6-dioxopiperidin-3-yl)-3-methyl-2-oxo-2,3-dihydro-1H-benzo[d]imidazol-5-yl)-[1,4′-bipiperidin]-4-yl)carbamate]
< 100 nM | < 10 nM | 1 to 10 nM | – | – | – | CCc1c(F)ccc2cc(O)cc(-c3ncc4c(N5CCC[C@@](C)(O)C5)nc(OC[C@@]56CCCN5[C@H](COC(=O)N5CC7(CN(CC8CCN(c9ccc%10c(c9)n(C)c(=O)n%10C9CCC(=O)NC9=O)CC8)C7)C5)CC6)nc4c3F)c12 (stereo partly drawn) [Compound 462, ((3S,7aS)-7a-(((7-(8-ethyl-7-fluoro-3-hydroxynaphthalen-1-yl)-8-fluoro-4-((R)-3-hydroxy-3-methylpiperidin-1-yl)pyrido[4,3-d]pyrimidin-2-yl)oxy)methyl)hexahydro-1H-pyrrolizin-3-yl)methyl 6-((1-(1-(2,6-dioxopiperidin-3-yl)-3-methyl-2-oxo-2,3-dihydro-1H-benzo[d]imidazol-5-yl)piperidin-4-yl)methyl)-2,6-diazaspiro[3.3]heptane-2-carboxylate]
< 100 nM | < 10 nM | < 1 nM | – | – | – | CCc1c(F)ccc2cc(O)cc(-c3ncc4c(N5CCC[C@@](C)(O)C5)nc(OC[C@@]56CCCN5[C@H](COC(=O)N5CCC(CN7CCC(Cc8ccc9c(c8)n(C)c(=O)n9C8CCC(=O)NC8=O)CC7)CC5)CC6)nc4c3F)c12 (stereo partly drawn) [Compound 429, ((3S,7aS)-7a-(((7-(8-ethyl-7-fluoro-3-hydroxynaphthalen-1-yl)-8-fluoro-4-((R)-3-hydroxy-3-methylpiperidin-1-yl)pyrido[4,3-d]pyrimidin-2-yl)oxy)methyl)hexahydro-1H-pyrrolizin-3-yl)methyl 4-((4-((1-(2,6-dioxopiperidin-3-yl)-3-methyl-2-oxo-2,3-dihydro-1H-benzo[d]imidazol-5-yl)methyl)piperidin-1-yl)methyl)piperidine-1-carboxylate]
< 100 nM | < 10 nM | < 1 nM | – | – | – | CCc1c(F)ccc2cc(O)cc(-c3ncc4c(N5CCC[C@@](C)(O)C5)nc(OC[C@@]56CCCN5[C@H](COC(=O)N5CC7(CC(CN8CCC(c9ccc%10c(c9)n(C)c(=O)n%10C9CCC(=O)NC9=O)CC8)C7)C5)CC6)nc4c3F)c12 (stereo partly drawn) [Compound 396, ((3S,7aS)-7a-(((7-(8-ethyl-7-fluoro-3-hydroxynaphthalen-1-yl)-8-fluoro-4-((R)-3-hydroxy-3-methylpiperidin-1-yl)pyrido[4,3-d]pyrimidin-2-yl)oxy)methyl)hexahydro-1H-pyrrolizin-3-yl)methyl 6-((4-(1-(2,6-dioxopiperidin-3-yl)-3-methyl-2-oxo-2,3-dihydro-1H-benzo[d]imidazol-5-yl)piperidin-1-yl)methyl)-2-azaspiro[3.3]heptane-2-carboxylate]
